In the supplement of paper PMC10307832:

Assays:
Assay in all cases: relative viability (nuclei count vs DMSO), 5 days (fraction); higher = more cells survive
201T = tested on: 201T
In short: (§1)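 Five library-drug doses in √10 steps were combined with a fixed anchor-drug dose, or a single drug was given alone, by pin tool to lung cancer cell lines in 1536-well plates the day after seeding. Nuclei were stained and counted after 5 days. Relative viability is the nuclei count in treated wells over that in vehicle wells, taken as the median of duplicate plates.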

BEN = tested on: BEN
In short: as §1

EMC-BAC-2 = tested on: EMC-BAC-2
In short: as §1

HARA = tested on: HARA
In short: as §1

LCLC-103H = tested on: LCLC-103H
In short: as §1

LOU-NH91 = tested on: LOU-NH91
In short: as §1

NCI-H1395 = tested on: NCI-H1395
In short: as §1

NCI-H1666 = tested on: NCI-H1666
In short: as §1

NCI-H1993 = tested on: NCI-H1993
In short: as §1

NCI-H2009 = tested on: NCI-H2009
In short: as §1

NCI-H2023 = tested on: NCI-H2023
In short: as §1

NCI-H2087 = tested on: NCI-H2087
In short: as §1

NCI-H2126 = tested on: NCI-H2126
In short: as §1

NCI-H2347 = tested on: NCI-H2347
In short: as §1

NCI-H23 = tested on: NCI-H23
In short: as §1

NCI-H3122 = tested on: NCI-H3122
In short: as §1

NCI-H441 = tested on: NCI-H441
In short: as §1

NCI-H596 = tested on: NCI-H596
In short: as §1

NCI-H647 = tested on: NCI-H647
In short: as §1

NCI-H650 = tested on: NCI-H650
In short: as §1

NCI-H727 = tested on: NCI-H727
In short: as §1

NCI-H838 = tested on: NCI-H838
In short: as §1

C[C@@H]1CN(CC(=O)Nc2ccc3c(c2)Cc2cccc(-c4cc(=O)cc(N5CCOCC5)o4)c2S3)C[C@H](C)O1 + COc1cc2c(Oc3ccc(NC(=O)C4(C(=O)Nc5ccc(F)cc5)CC4)cc3F)ccnc2cc1OCCCN1CCOCC1 [Foretinib] (partner 0.25 µM)
relative viability (201T; first compound 0.04 µM): 0.93
relative viability (201T; first compound 0.1265 µM): 1.06
relative viability (201T; first compound 4 µM): 0.936
relative viability (BEN; first compound 0.04 µM): 0.615
relative viability (BEN; first compound 0.1265 µM): 0.552
relative viability (BEN; first compound 0.4 µM): 0.593
relative viability (BEN; first compound 4 µM): 0.623
relative viability (EMC-BAC-2; first compound 0.04 µM): 1.08
relative viability (EMC-BAC-2; first compound 0.1265 µM): 1.04
relative viability (EMC-BAC-2; first compound 0.4 µM): 0.998
relative viability (EMC-BAC-2; first compound 4 µM): 0.92
relative viability (HARA; first compound 0.1265 µM): 0.757
relative viability (HARA; first compound 0.4 µM): 0.891
relative viability (HARA; first compound 4 µM): 0.879
relative viability (LCLC-103H; first compound 0.04 µM): 0.777
relative viability (LCLC-103H; first compound 0.1265 µM): 0.671
relative viability (LCLC-103H; first compound 0.4 µM): 0.671
relative viability (LCLC-103H; first compound 4 µM): 0.608
relative viability (LOU-NH91; first compound 0.04 µM): 1
relative viability (LOU-NH91; first compound 0.1265 µM): 0.96
relative viability (LOU-NH91; first compound 0.4 µM): 0.943
relative viability (LOU-NH91; first compound 4 µM): 0.897
relative viability (NCI-H1395; first compound 0.04 µM): 1.06
relative viability (NCI-H1395; first compound 0.1265 µM): 1.07
relative viability (NCI-H1395; first compound 0.4 µM): 0.982
relative viability (NCI-H1395; first compound 4 µM): 0.866
relative viability (NCI-H1666; first compound 0.04 µM): 0.952
relative viability (NCI-H1666; first compound 0.1265 µM): 0.989
relative viability (NCI-H1666; first compound 0.4 µM): 1.05
relative viability (NCI-H1666; first compound 4 µM): 0.812
relative viability (NCI-H1993; first compound 0.04 µM): 0.811
relative viability (NCI-H1993; first compound 0.1265 µM): 0.711
relative viability (NCI-H1993; first compound 0.4 µM): 0.646
relative viability (NCI-H1993; first compound 4 µM): 0.707
relative viability (NCI-H2009; first compound 0.04 µM): 1.35
relative viability (NCI-H2009; first compound 0.1265 µM): 1.18
relative viability (NCI-H2009; first compound 0.4 µM): 1.15
relative viability (NCI-H2009; first compound 4 µM): 0.967
relative viability (NCI-H2023; first compound 0.04 µM): 0.732
relative viability (NCI-H2023; first compound 0.1265 µM): 0.915
relative viability (NCI-H2023; first compound 0.4 µM): 0.731
relative viability (NCI-H2023; first compound 4 µM): 0.666
relative viability (NCI-H2087; first compound 0.04 µM): 1.15
relative viability (NCI-H2087; first compound 0.1265 µM): 0.954
relative viability (NCI-H2087; first compound 0.4 µM): 1.05
relative viability (NCI-H2087; first compound 4 µM): 0.801
relative viability (NCI-H2126; first compound 0.04 µM): 1.17
relative viability (NCI-H2126; first compound 0.1265 µM): 1.12
relative viability (NCI-H2126; first compound 0.4 µM): 1.12
relative viability (NCI-H2126; first compound 4 µM): 1.02
relative viability (NCI-H2347; first compound 0.04 µM): 0.758
relative viability (NCI-H2347; first compound 0.1265 µM): 0.761
relative viability (NCI-H2347; first compound 0.4 µM): 1.04
relative viability (NCI-H2347; first compound 4 µM): 1.2
relative viability (NCI-H23; first compound 0.04 µM): 0.95
relative viability (NCI-H23; first compound 0.1265 µM): 0.85
relative viability (NCI-H23; first compound 0.4 µM): 0.945
relative viability (NCI-H23; first compound 4 µM): 0.844
relative viability (NCI-H3122; first compound 0.04 µM): 1.03
relative viability (NCI-H3122; first compound 0.1265 µM): 0.902
relative viability (NCI-H3122; first compound 0.4 µM): 0.961
relative viability (NCI-H3122; first compound 4 µM): 0.914
relative viability (NCI-H441; first compound 0.04 µM): 0.925
relative viability (NCI-H441; first compound 0.1265 µM): 0.978
relative viability (NCI-H441; first compound 0.4 µM): 0.911
relative viability (NCI-H441; first compound 4 µM): 0.934
relative viability (NCI-H596; first compound 0.04 µM): 0.926
relative viability (NCI-H596; first compound 0.1265 µM): 0.835
relative viability (NCI-H596; first compound 0.4 µM): 0.909
relative viability (NCI-H596; first compound 4 µM): 0.87
relative viability (NCI-H647; first compound 0.04 µM): 1.34
relative viability (NCI-H647; first compound 0.1265 µM): 1.17
relative viability (NCI-H647; first compound 0.4 µM): 1.2
relative viability (NCI-H647; first compound 4 µM): 0.793
relative viability (NCI-H650; first compound 0.04 µM): 0.993
relative viability (NCI-H650; first compound 0.1265 µM): 0.977
relative viability (NCI-H650; first compound 0.4 µM): 1.03
relative viability (NCI-H650; first compound 4 µM): 0.875
relative viability (NCI-H727; first compound 0.04 µM): 0.98
relative viability (NCI-H727; first compound 0.1265 µM): 0.783
relative viability (NCI-H727; first compound 0.4 µM): 0.826
relative viability (NCI-H727; first compound 4 µM): 1
relative viability (NCI-H838; first compound 0.04 µM): 0.871
relative viability (NCI-H838; first compound 0.1265 µM): 0.952
relative viability (NCI-H838; first compound 0.4 µM): 0.969
relative viability (NCI-H838; first compound 4 µM): 0.723
